Laboratory results taken from patent US20220024921A1, “1,3,4-OXADIAZOLONE COMPOUND AND PHARMACEUTICAL” (NIPPON SHINYAKU CO., LTD., priority 2018, published 2022).
Where a name gives a salt, the structure may show the parent alone.

Legend:
[1] = target: T1, PIM1 serine/threonine kinase (Homo sapiens, UniProt P11309); test: PIM1 serine/threonine kinase inhibitory effect; assay type: biochemical; details: PIM1 serine/threonine kinase activity; ATP 40 μM; 30° C., 30 minutes
T1 construct: purchased Carna Bioscience, Inc
T1 sequence (P11309 whole entry): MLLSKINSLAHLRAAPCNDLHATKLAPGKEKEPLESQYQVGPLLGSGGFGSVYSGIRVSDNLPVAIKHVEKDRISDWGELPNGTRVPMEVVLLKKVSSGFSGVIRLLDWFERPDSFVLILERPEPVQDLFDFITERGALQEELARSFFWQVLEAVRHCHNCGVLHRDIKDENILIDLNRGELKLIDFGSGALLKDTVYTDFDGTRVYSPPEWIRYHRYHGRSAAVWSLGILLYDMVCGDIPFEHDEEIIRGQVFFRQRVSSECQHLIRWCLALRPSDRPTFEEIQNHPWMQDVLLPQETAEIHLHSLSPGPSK
Outline: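 Compounds were tested in duplicate from 0.01 to 10000 nM final against PIM1 kinase (0.15 μg/ml). The reaction ran for 30 minutes at 30° C with 40 μM ATP and 0.5 μM biotin-tagged substrate at pH 7.0. Phosphorylation was read by time-resolved FRET (OD665/OD620) after 1 h; IC50 by non-linear fit.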

[2] = target: PIM1 transgenic cells (Ba/F3) (Homo sapiens, UniProt P11309); test: Proliferation inhibitory effect on PIM1 transgenic cells; assay type: cell-based, mouse; details: proliferation inhibition, 72 hours, Cell Counting Kit-8, read-out: PIM1 IC50
Sequence of PIM1 transgenic cells (Ba/F3) (P11309 whole entry, stated change not applied): as the sequence (P11309 whole entry) above
Outline: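 Mouse Ba/F3 pro-B cells were retrovirally transduced with human PIM1 so that their proliferation depends on PIM1. Cells were treated with compound at 1–10000 nM final for 72 h, then read by CCK-8 (OD450−OD650). Inhibition was set against DMSO (0%) and no-cell blank (100%), and IC50 was obtained by two-parameter logistic regression.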

Row | Compound | IC50 [1] [nM] | GI50 [2] [nM]
1 | C[C@H](Nc1cc(-c2n[nH]c(=O)o2)cc(F)c1Br)C1CCNCC1 [Example 83, 5-(4-bromo-3-fluoro-5-{[(1S)-1-(piperidin-4-yl)ethyl]amino}phenyl)-1,3,4-oxadiazol-2(3H)-one hydrochloride] | 1 | 75
2 | C[C@H](Nc1cc(-c2n[nH]c(=O)o2)cc(C(F)(F)F)c1Cl)[C@H]1C[C@@H](N)C1 [Example 183, 5-[3-({(1S)-1-[(1s,3R)-3-aminocyclobutyl]ethyl}amino)-4-chloro-5-(trifluoromethyl)phenyl]-1,3,4-oxadiazol-2(3H)-one hydrochloride] | 1.8 | 45
3 | O=c1[nH]nc(-c2ccc(C(F)(F)F)c(/C=C/C3CCNCC3)c2)o1 [Example 30, 5-{3-[(E)-2-(piperidin-4-yl)ethenyl]-4-(trifluoromethyl)phenyl}-1,3,4-oxadiazol-2(3H)-one hydrochloride] | 24 | 970
4 | O=c1[nH]nc(-c2ccc(C(F)(F)F)c(NC[C@H]3CCNC[C@H]3F)c2)o1 [Example 126, 5-[3-({[(3S,4R)-3-fluoropiperidin-4-yl]methyl}amino)-4-(trifluoromethyl)phenyl]-1,3,4-oxadiazol-2(3H)-one hydrochloride] | 11 | 600
5 | C[C@H](Nc1cc(-c2n[nH]c(=O)o2)ccc1C(F)(F)F)C1(C)CCNCC1 [Example 144, 5-[3-{[(1S)-1-(4-methylpiperidin-4-yl)ethyl]amino}-4-(trifluoromethyl)phenyl]-1,3,4-oxadiazol-2(3H)-one hydrochloride] | 2.9 | 64
6 | CC(C)c1c(F)cc(-c2n[nH]c(=O)o2)cc1N[C@@H](C)[C@H]1CC[C@H](N)CC1 [Example 233, 5-[3-({(1S)-1-[(1r,4S)-4-aminocyclohexyl]ethyl}amino)-5-fluoro-4-(propan-2-yl)phenyl]-1,3,4-oxadiazol-2(3H)-one hydrochloride] | 5.5 | 44
7 | C[C@@H]1CNCC[C@@H]1[C@H](C)Nc1cc(-c2n[nH]c(=O)o2)ccc1Cl [Example 221, 5-[4-chloro-3-({(1S)-1-[(3S,4S)-3-methylpiperidin-4-yl]ethyl}amino)phenyl]-1,3,4-oxadiazol-2(3H)-one] | 7.2 | 46
8 | CC[C@H](Nc1cc(-c2n[nH]c(=O)o2)ccc1C(F)(F)F)C1CCNCC1 [Example 138, 5-[3-{[(1S)-1-(piperidin-4-yl)propyl]amino}-4-(trifluoromethyl)phenyl]-1,3,4-oxadiazol-2(3H)-one hydrochloride] | 4 | 73
9 | C=C(C)c1c(F)cc(-c2n[nH]c(=O)o2)cc1N[C@@H](C)[C@H]1CC[C@H](N)CC1 [Example 232, 5-[3-({(1S)-1-[(1r,4S)-4-aminocyclohexyl]ethyl}amino)-5-fluoro-4-(prop-1-en-2-yl)phenyl]-1,3,4-oxadiazol-2(3H)-one hydrochloride] | 2 | 28
10 | C[C@H](Nc1cc(-c2n[nH]c(=O)o2)cc(Cl)c1Cl)[C@H]1C[C@@H](N)C1 [Example 179, 5-[3-({(1S)-1-[(1s,3R)-3-aminocyclobutyl]ethyl}amino)-4,5-dichlorophenyl]-1,3,4-oxadiazol-2(3H)-one dihydrochloride] | 2 | 23
11 | C[C@H](Nc1c(F)c(-c2n[nH]c(=O)o2)cc(F)c1Cl)[C@H]1CC[C@H](N)CC1 [Example 169, 5-[3-({(1S)-1-[(1r,4S)-4-aminocyclohexyl]ethyl}amino)-4-chloro-2,5-difluorophenyl]-1,3,4-oxadiazol-2(3H)-one hydrochloride] | 6.5 | 310
12 | C[C@H](Nc1cc(-c2n[nH]c(=O)o2)ccc1C(F)F)C1CCNCC1 [Example 90, 5-[4-(difluoromethyl)-3-{[(1S)-1-(piperidin-4-yl)ethyl]amino}phenyl]-1,3,4-oxadiazol-2(3H)-one] | 21 | 3800
13 | N[C@H]1CO[C@H](CCc2cc(-c3n[nH]c(=O)o3)ccc2C(F)(F)F)OC1 [Example 28, 5-[3-{2-[(2r,5r)-5-amino-1,3-dioxan-2-yl]ethyl}-4-(trifluoromethyl)phenyl]-1,3,4-oxadiazol-2(3H)-one hydrochloride] | 38 | 3500
14 | N[C@H]1CC[C@H](Nc2cc(-c3n[nH]c(=O)o3)ccc2Br)CC1 [Example 35, 5-(3-{[(1r,4r)-4-aminocyclohexyl]amino}-4-bromophenyl)-1,3,4-oxadiazol-2(3H)-one hydrochloride] | 4.9 | 510
15 | NCCC1CCN(c2cc(-c3n[nH]c(=O)o3)ccc2C(F)(F)F)CC1 [Example 10, 5-{3-[4-(2-aminoethyl)piperidin-1-yl]-4-(trifluoromethyl)phenyl}-1,3,4-oxadiazol-2(3H)-one hydrochloride] | 6.6 | 630
16 | CC[C@H](Nc1cc(-c2n[nH]c(=O)o2)ccc1C(F)(F)F)[C@H]1CC[C@H](N)CC1 [Example 181, 5-[3-({(1S)-1-[(1r,4S)-4-aminocyclohexyl]propyl}amino)-4-(trifluoromethyl)phenyl]-1,3,4-oxadiazol-2(3H)-one hydrochloride] | 3.5 | 68
17 | O=c1[nH]nc(-c2ccc(C(F)(F)F)c(NCCC3CCNCC3)c2)o1 [Example 64, 5-[3-{[2-(piperidin-4-yl)ethyl]amino}-4-(trifluoromethyl)phenyl]-1,3,4-oxadiazol-2(3H)-one hydrochloride] | 9 | 1300
18 | O=c1[nH]nc(-c2ccc(C(F)(F)F)c(NCC3(F)CCCNC3)c2)o1 (stereo not shown) [Example 109, 5-[3-{[(3-fluoropiperidin-3-yl)methyl]amino}-4-(trifluoromethyl)phenyl]-1,3,4-oxadiazol-2(3H)-one hydrochloride] | 28 | 480
19 | C[C@@H]1CNCC[C@@H]1[C@H](C)Nc1cc(-c2n[nH]c(=O)o2)ccc1OC(F)F [Example 220, 5-[4-(difluoromethoxy)-3-({(1S)-1-[(3S,4S)-3-methylpiperidin-4-yl]ethyl}amino)phenyl]-1,3,4-oxadiazol-2(3H)-one] | 6.1 | 110
20 | O=c1[nH]nc(-c2cc(F)c(C(F)(F)F)c(NCC3(F)CCNCC3)c2)o1 [Example 129, 5-[3-fluoro-5-{[(4-fluoropiperidin-4-yl)methyl]amino}-4-(trifluoromethyl)phenyl]-1,3,4-oxadiazol-2(3H)-one hydrochloride] | 8.2 | 360
21 | O=c1[nH]nc(-c2ccc(Cl)c(OC[C@H]3C[C@@H](N4CCNCC4)C3)c2)o1 [Example 242, 5-(4-chloro-3-{[(1s,3s)-3-(piperazin-1-yl)cyclobutyl]methoxy}phenyl)-1,3,4-oxadiazol-2(3H)-one] | 10 | 2600
22 | CC[C@H](Nc1cc(-c2n[nH]c(=O)o2)cc(F)c1Cl)C1CCNCC1 [Example 139, 5-(4-chloro-3-fluoro-5-{[(1S)-1-(piperidin-4-yl)propyl]amino}phenyl)-1,3,4-oxadiazol-2(3H)-one hydrochloride] | 2.6 | 80
23 | C[C@H](Nc1cc(-c2n[nH]c(=O)o2)cc(C(F)(F)F)c1Cl)C1CCNCC1 [Example 101, 5-[4-chloro-3-{[(1S)-1-(piperidin-4-yl)ethyl]amino}-5-(trifluoromethyl)phenyl]-1,3,4-oxadiazol-2(3H)-one dihydrochloride] | 2.1 | 61
24 | Cc1c(Cl)cc(-c2n[nH]c(=O)o2)cc1N[C@@H](C)C1CCNCC1 [Example 98, 5-(3-chloro-4-methyl-5-{[(1S)-1-(piperidin-4-yl)ethyl]amino}phenyl)-1,3,4-oxadiazol-2(3H)-one dihydrochloride] | 2 | 79
25 | C[C@H](Nc1cc(-c2n[nH]c(=O)o2)ccc1Br)[C@H]1CC[C@H](N)CC1 [Example 154, 5-[3-({(1S)-1-[(1r,4S)-4-aminocyclohexyl]ethyl}amino)-4-bromophenyl]-1,3,4-oxadiazol-2(3H)-one hydrochloride] | 2.4 | 35
26 | O=c1[nH]nc(-c2ccc(Br)c(NCC3CCNCC3)c2)o1 [Example 50, 5-(4-bromo-3-{[(piperidin-4-yl)methyl]amino}phenyl)-1,3,4-oxadiazol-2(3H)-one hydrochloride] | 3.7 | 1800
27 | NCc1ccc(-c2cc(-c3n[nH]c(=O)o3)ccc2C(F)(F)F)cc1 [Example 20, 5-[4′-(aminomethyl)-6-(trifluoromethyl)[1,1′-biphenyl]-3-yl]-1,3,4-oxadiazol-2(3H)-one hydrochloride] | 33 | 4500
28 | COc1c(Cl)cc(-c2n[nH]c(=O)o2)cc1N[C@@H](C)C1CCNCC1 [Example 104, 5-(3-chloro-4-methoxy-5-{[(1S)-1-(piperidin-4-yl)ethyl]amino}phenyl)-1,3,4-oxadiazol-2(3H)-one hydrochloride] | 4 | 110
29 | O=c1[nH]nc(-c2ccc(C(F)(F)F)c(N[C@H]3CCC34CCNCC4)c2)o1 [Example 45, 5-[3-{[(1S)-7-azaspiro[3.5]nonan-1-yl]amino}-4-(trifluoromethyl)phenyl]-1,3,4-oxadiazol-2(3H)-one hydrochloride] | 20 | 390
